According to ChEMBL document CHEMBL3259552, “Tetra-substituted imidazoles as a new class of inhibitors of the p53-MDM2 interaction” (Bioorg Med Chem Lett, 2014):

Assays:
SJSA-1 = assay: Antiproliferative activity against human SJSA1 cells expressing wild-type p53 after 72 hrs by fluorescence plate reader analysis; assay type: functional, cell-based; conditions: SJSA-1, 72 h
[1] = Antiproliferative activity against p53-deficient human Saos2 cells after 72 hrs by fluorescence plate reader analysis; assay type: functional, cell-based; conditions: SAOS-2, 72 h
[2] = target: E3 ubiquitin-protein ligase Mdm2 (Homo sapiens, UniProt Q00987); assay: Inhibition of MDM2 (unknown origin) (2 to 188) assessed as inhibition of p53-MDM2 interaction by TR-FRET assay
Sequence of E3 ubiquitin-protein ligase Mdm2 (Q00987 whole entry): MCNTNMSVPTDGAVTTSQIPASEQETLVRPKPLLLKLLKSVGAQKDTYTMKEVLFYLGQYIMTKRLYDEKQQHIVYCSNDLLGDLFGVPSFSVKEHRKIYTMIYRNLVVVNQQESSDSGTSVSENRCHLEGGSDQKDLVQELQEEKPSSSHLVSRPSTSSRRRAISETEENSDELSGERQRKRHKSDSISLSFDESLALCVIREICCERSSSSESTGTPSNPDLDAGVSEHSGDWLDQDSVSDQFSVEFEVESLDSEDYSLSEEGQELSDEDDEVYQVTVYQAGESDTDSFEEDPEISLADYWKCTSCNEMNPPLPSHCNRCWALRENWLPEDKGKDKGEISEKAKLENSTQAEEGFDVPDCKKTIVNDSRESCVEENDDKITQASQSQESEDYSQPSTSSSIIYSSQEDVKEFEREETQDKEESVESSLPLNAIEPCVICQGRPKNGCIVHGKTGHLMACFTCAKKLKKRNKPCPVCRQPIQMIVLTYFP

Structure (SMILES)	IC50 (SJSA-1) [µM]	IC50 [1] [µM]	IC50 [2] [µM]
CNC(=O)Cc1ccc(Cl)c(F)c1-n1c(C2CCCCC2)nc(-c2nnc(N)o2)c1-c1ccc(F)c(Cl)c1	1.4	24	
O=C(O)c1nc(-c2ccccc2)n(-c2cccc(Cl)c2F)c1-c1ccc(F)c(Cl)c1	14	> 30	
Cc1nnc(-c2nc(C3CCCCC3)n(-c3cccc(Cl)c3F)c2-c2ccc(F)c(Cl)c2)o1	5.9	> 30	
Nc1nnc(-c2nc(C3CCCCC3)n(-c3c(CC(=O)Nc4ccccc4)ccc(Cl)c3F)c2-c2ccc(F)c(Cl)c2)o1	2.5	30	
Cc1cccc(-c2nc(C(=O)O)c(-c3cccc(Cl)c3)n2-c2cc(Cl)ccc2C)c1	10.2	> 30	
Nc1nnc(-c2nc(C3CCCCC3)n(-c3cccc(Cl)c3F)c2-c2ccc(F)c(Cl)c2)o1	3.5	> 30	
NC(=O)c1nc(C2CCCCC2)n(-c2cccc(Cl)c2F)c1-c1ccc(F)c(Cl)c1	4.1	29	
O=C(O)c1nc(C2CCCCC2)n(-c2cccc(Cl)c2F)c1-c1ccc(F)c(Cl)c1	13.2	> 30	
Cc1ccc(Cl)cc1-n1c(-c2ccccc2)nc(C(=O)O)c1-c1cccc(Cl)c1	16.1	> 30	
CC(C)(C)NC(=O)Cc1ccc(Cl)c(F)c1-n1c(C2CCCCC2)nc(-c2nnc(N)o2)c1-c1ccc(F)c(Cl)c1	0.5	23	
O=C(O)c1nc(-c2ccccc2)n(-c2cccc(Cl)c2)c1-c1cccc(Cl)c1			0.12
O=C(O)c1nc(-c2ccccc2)n(-c2cccc(Cl)c2F)c1-c1cccc(Cl)c1	12.2	> 30	
Nc1nnc(-c2nc(C3CCCCC3)n(-c3c(CC(=O)NC4CCCCC4)ccc(Cl)c3F)c2-c2ccc(F)c(Cl)c2)o1	1.4	28	
Fc1ccc(-c2c(-c3nnn[nH]3)nc(C3CCCCC3)n2-c2cccc(Cl)c2F)cc1Cl	4.4	> 30	
